Tested on: Human epidermal melanocytes from dark-pigmented skin
Assay: Melanin content in human epidermal melanocytes after 8 days of incubation (absorbance at 405 nm)
Type: cell-based
Details: for % Pigmentation (percent change of melanin absorbance relative to vehicle control): 8 days of incubation; for Effect on pigmentation, in words: at the concentrations of Table 1
Protocol: The Compound of Formula (II) was examined for its ability to reduce pigmentation in vitro in human melanocytes. Human epidermal melanocytes from dark-pigmented skin were seeded in 6-well dishes and grown using commercially available Medium 254, a sterile, liquid medium prepared with 200 μM calcium chloride for the culture of human epidermal melanocytes, supplemented with 1% Penicillin/Streptomycin and 1% Human Melanocyte Growth Supplement. Corresponding controls were maintained without histamine, Diphenylhydramine HCl and Compound II. Four replicates were tested for each combination. After 8 days of incubation, melanin was collected and processed by washing the wells with 1× phosphate-buffered saline (PBS), followed by addition of 200 μL of 2M NaOH to three of the four replicates, which are then scraped, pooled and boiled at 80° C. for an hour. Melanin absorption was then measured at 405 nm using a spectrophotometer.
A larger (positive or negative) percent change indicates a larger increase or reduction in melanin.

| SMILES | % Pigmentation (percent change of melanin absorbance relative to vehicle control) (0.0001%) [%] | % Pigmentation (percent change of melanin absorbance relative to vehicle control) (0.001%) [%] | Effect on pigmentation, in words | % Pigmentation (percent change of melanin absorbance relative to vehicle control) (5 μM) [%] |
| --- | --- | --- | --- | --- |
| NC(=O)COc1ccc(C(=O)NCc2ccc(CN3CCCCC3)cc2)cc1 [Compound (II)] | −28.30 | −75.25 | effective to reduce pigmentation |  |
| NCCc1c[nH]cn1 [Histamine, reference compound] |  |  | significant increase in pigmentation | 58.75 |

From patent US20160263005A1, “TOPICAL COMPOSITIONS AND METHODS FOR SKIN LIGHTENING” (AVON PRODUCTS, INC., priority 2014, published 2016)
